Reference: paper PMC4464647, “ANO1 (TMEM16A) in pancreatic ductal adenocarcinoma (PDAC)” (Pflugers Archiv, 2014)
d = 2'-deoxy (DNA)

Biological target: T1, CaCC current (Homo sapiens, UniProt Q5XXA6)
T1 construct: Whole-cell patch-clamp recordings identified large Ca^2+ and voltage-dependent Cl^− currents in PDAC cells; endogenous in cells; host or cells: Capan-1, AsPC-1, BxPC-3 (human PDAC cell lines, ATCC)
T1 sequence (Q5XXA6 1-986): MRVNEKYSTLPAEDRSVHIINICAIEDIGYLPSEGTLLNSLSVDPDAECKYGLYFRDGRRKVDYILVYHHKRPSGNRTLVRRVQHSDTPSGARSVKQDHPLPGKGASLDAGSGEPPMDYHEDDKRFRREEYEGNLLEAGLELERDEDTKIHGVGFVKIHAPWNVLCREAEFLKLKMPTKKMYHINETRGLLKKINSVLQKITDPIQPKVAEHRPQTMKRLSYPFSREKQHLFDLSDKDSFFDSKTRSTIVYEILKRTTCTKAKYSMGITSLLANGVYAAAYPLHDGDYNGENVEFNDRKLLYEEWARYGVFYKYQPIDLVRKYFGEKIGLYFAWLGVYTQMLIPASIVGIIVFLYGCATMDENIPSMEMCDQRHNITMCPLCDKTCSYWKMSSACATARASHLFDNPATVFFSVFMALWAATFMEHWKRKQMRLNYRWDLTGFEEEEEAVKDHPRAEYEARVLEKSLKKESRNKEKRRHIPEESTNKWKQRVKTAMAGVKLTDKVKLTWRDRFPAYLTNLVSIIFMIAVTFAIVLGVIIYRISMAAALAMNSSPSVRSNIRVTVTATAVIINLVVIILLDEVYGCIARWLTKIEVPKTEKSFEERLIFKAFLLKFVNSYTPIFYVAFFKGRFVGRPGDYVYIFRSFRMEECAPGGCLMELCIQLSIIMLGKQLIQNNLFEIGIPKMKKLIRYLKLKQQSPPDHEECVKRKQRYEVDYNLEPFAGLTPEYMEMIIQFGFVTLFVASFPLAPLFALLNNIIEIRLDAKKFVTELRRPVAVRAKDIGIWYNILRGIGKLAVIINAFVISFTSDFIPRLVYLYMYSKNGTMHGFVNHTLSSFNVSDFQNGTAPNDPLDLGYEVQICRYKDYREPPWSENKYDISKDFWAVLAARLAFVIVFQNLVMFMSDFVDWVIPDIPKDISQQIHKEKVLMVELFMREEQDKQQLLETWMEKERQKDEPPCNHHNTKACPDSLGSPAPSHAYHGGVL
Assay: Whole-cell patch-clamp of CaCC currents in PDAC cells, 1 μM Ca2+ in pipette solution
Format: cell-based
Conditions: for decrease of CaCC currents: siRNA 50 nM, compared to scrambled siRNA (MOCK)
Protocol: Cells were grown on poly-L-lysine coated coverslips. For knockdown experiments, cells were transfected with siRNA targeting ANO1 or scrambled siRNA shortly after complete attachment of the cells (approx. 3 h after plating). Currents were measured 36–48 h after transfection. Whole-cell patch-clamp recordings were performed using the Axopatch 200B amplifier interfaced to a Digidata 1440A controlled by pClamp10 software (Molecular Devices, USA). Analogue signals were acquired at 2.5 kHz and filtered at 1 kHz. […] An agar bridge made of 3 % agar and 97 % of the bath solution containing NMDG-Cl (below) was used as reference electrode. Current activations were recorded from an output holding potential, V out = 0 mV with ramp protocols spanning from −100 to 100 mV over 1 s and run continuously with 15-s intervals. Step protocols between −100 to 120 mV were generated from V out = 0 mV with step increments of 20 mV and lengths of 2 s. Liquid junction potentials (V lj) were estimated as described in [10] with membrane potentials calculated as, V m = V out − V lj. Series resistance was compensated by 60–70 %. All recordings were performed at room temperature (18–23 °C). Instantaneous currents were measured 1 ms after each voltage step. The data was fitted using the Goldman–Hodgkin–Katz (GHK) current equation.1 ICl^−=Pz^2F^2V/RTCo−Cie^zFV/RT/1−e^zFV/RT
One micromolar free Ca^2+ pipette solution include the following (in mM): 100 CsAsp, 40 CsCl, 4.34 CaCl2, 4 Na2ATP, 1 MgCl2, 5 EGTA, 10 HEPES, pH 7.2, osmolality 295 mosmol/kg or 0 μM free Ca^2+ solution containing no CaCl2 and 10 mM EGTA. Standard bath solution include the following (in mM): 150 NaCl, 1.5 CaCl2, 1 MgCl2, 10 glucose, 10 HEPES, pH 7.4, osmolality 315 mosmol/kg (adjusted with D-mannitol). Isotonic solution include the following (in mM): 85 NaCl, 2 MgCl2, 1.5 CaCl2, 10 glucose, 10 HEPES, pH 7.4, of osmolality 315 mosmol/kg (adjusted with D-mannitol). The hypotonic solution with osmolality of 210 mosmol/kg was obtained by omitting D-mannitol from the isotonic solution. For experiments testing efficiency of an inhibitor, NaCl was replaced by N-methyl-D-glucamine chloride (NMDG-Cl) after seal formation. All osmolalities were measured in a Wescor Vapro model 5520 osmometer (Wescor Inc., USA) calibrated by the manufacturer’s Optimol standard solutions.
Whole-cell patch-clamp recordings with 1 μM Ca^2+ in pipette solution. a Representative current traces measured in Capan-1 cells upon exposure to different inhibitors. b Quantification of CaCC currents at +67 mV recorded with inhibitors compared to currents in presence of DMSO; currents of siANO1 cells were compared to those of MOCK transfected cells. c Steady-state I–V relationships of cells transfected with either scrambled siRNA (MOCK) or siRNA targeting ANO1. d Densitometric quantification of Western blot analysis of siRNA knockdown. β-Actin was used as a loading control. (n) = number of individual experiments

Row | inhibition at 20 µM (ASPC1, AsPC-1 cells, inhibitor 20 μM, at +67 mV, vs DMSO) | inhibition of CaCC current (BxPC-3 cells, inhibitor 20 μM, at +67 mV, vs DMSO) | inhibition at 20 µM (Capan-1 cells, inhibitor 20 μM, at +67 mV, vs DMSO) | Compound | decrease of CaCC currents (AsPC-1 cells) | decrease of CaCC currents (BxPC-3 cells) | decrease of CaCC currents (Capan-1 cells)
1 | 29 ± 2% | ineffective | 43 ± 8% | CCc1c(C)nc(SCC(=O)Nc2nc(-c3ccc(OC)cc3)cs2)[nH]c1=O [T16Ainh-A01, 2-[(5-Ethyl-1,6-dihydro-4-methyl-6-oxo-2-pyrimidinyl)thio]-N-[4-(4-methoxyphenyl)-2-thiazolyl]acetamide] | – | – | –
2 | – | – | – | siRNA targeting ANO1: Predesigned siRNA oligo from Sigma-Aldrich, 5′-CCUUCAACGUCAGUGACUU[dT][dT]-3′, 5′-AAGUCACUGACGUUGAAGG[dT][dT]-3′ (RNA, 3' dTdT, backbone not given here) | 89 ± 51% | 84 ± 23% | 88 ± 42%
